Test results from USRE49022E1, “Insecticidal compounds” (SYNGENTA PARTICIPATIONS AG, priority 2013, dated 2022).

Legend:
Assay type in all cases: in vivo
[1] = test system: Diabrotica balteata (Corn Root Worm); assay: Diabrotica balteata, artificial diet MTP test; settings: 120 h, 200 ppm (concentration in well 18 ppm), L2 larvae, larval mortality after 5 days
Procedure: A 24-well microtiter plate (MTP) with artificial diet was treated with test solutions at an application rate of 200 ppm (concentration in well 18 ppm) by pipetting. After drying, the MTP's were infested with L2 larvae (6-10 per well). After an incubation period of 5 days, samples were checked for larval mortality The following compound gave at least 80% control of Diabrotica balteata: 1, 2, 3, 4, 5, 6, 7, 8, 9, 10, 11, 12, 13, 14, 15, 16, 17, 18, 19, 20, 21, 22, 23, 24, 25, 26, 27, 28, 29, 30, 31, 32, 33, 34, 35, 36, 37, 38, 39, 40, 41, 42, 43, 44, 45, 46, 47, 48, 49, 50, 51.

[2] = test system: Myzus persicae (Green Peach Aphid); assay: Myzus persicae, sunflower leaf disc spray test; settings: foliar, 144 h, sprayed sunflower leaf discs, aphid population of mixed ages, mortality after 6 DAT
Procedure: Sunflower leaf discs were placed on agar in a 24-well microtiter plate and sprayed with test solutions at an application rate of 200 ppm. After drying, the leaf discs were infested with an aphid population of mixed ages. After an incubation period of 6 DAT, samples were checked for mortality.

[3] = test system: Myzus persicae (Green Peach Aphid); assay: Myzus persicae, sucrose solution / Parafilm test; settings: 120 h, mixed with sucrose solution under Parafilm, mortality 5 days after infestation
Excerpt: Test compounds were applied by pipette into 24 well plates and mixed with Sucrose solution. Application rate: 12.5 ppm. The plates were closed with a stretched Parafilm. A plastic stencil with 24 holes is placed onto the plate and infested pea seedlings were placed directly on the Parafilm. The infested plate is closed with a gel blotting paper and another plastic stencil and then turned upside down. 5 days after infestation the samples were checked on mortality.

[4] = test system: Plutella xylostella (Diamond Back Moth); assay: Plutella xylostella, artificial diet MTP test; settings: 144 h, 200 ppm (concentration in well 18 ppm), L2 larvae, 6 days
Procedure: 24-well microtiter plate (MTP) with artificial diet was treated with test solutions at an application rate of 200 ppm (concentration in well 18 ppm) by pipetting. After drying, the MTP's were infested with L2 larvae (7-12 per well). After an incubation period of 6 days, samples were checked for larval mortality and growth regulation. The following compound gave at least 80% mortality of Plutella xylostella: 1, 2, 3, 4, 5, 6, 7, 8, 9, 10, 11, 12, 13, 14, 15, 16, 17, 18, 19, 20, 21, 22, 23, 24, 25, 26, 27, 28, 29, 30, 31, 32, 33, 34, 35, 36, 37, 38, 39, 40, 41, 42, 43, 44, 45, 46, 47, 48, 49, 50.

[5] = test system: Spodoptera littoralis (Egyptian Cotton Leafworm); assay: Spodoptera littoralis, cotton leaf disc spray test; settings: foliar, 72 h, sprayed cotton leaf discs, L1 larvae, 3 days after treatment
Excerpt: Cotton leaf discs were placed on agar in a 24-well microtiter plate and sprayed with test solutions at an application rate of 200 ppm. After drying, the leaf discs were infested with 5 L1 larvae. The samples were checked for mortality 3 days after treatment (DAT).

[6] = test system: Tetranychus urticae (Two-Spotted Spider Mite); assay: Tetranychus urticae, bean leaf disc spray test; settings: foliar, 192 h, sprayed bean leaf discs, mite populations of mixed ages, 8 days
Excerpt: Bean leaf discs on agar in 24-well microtiter plates were sprayed with test solutions at an application rate of 200 ppm. After drying, the leaf discs are infested with mite populations of mixed ages. 8 days later, discs were checked for mortality.

[7] = test system: Thrips tabaci (Onion Thrips); assay: Thrips tabaci, sunflower leaf disc spray test; settings: foliar, 168 h, sprayed sunflower leaf discs, mortality after 7 days

CCc1cc(C(F)(C(F)(F)F)C(F)(F)Cl)cc(Br)c1NC(=O)c1cccc(N(CC)C(=O)c2ccncc2)c1F (stereo not drawn) [Compound 37]
≥ 80%: pest or weed control at 200 ppm [1] | pest or weed control at 200 ppm [2] | pest or weed control at 12.5 ppm [3] | mortality at 200 ppm [4] | mortality at 200 ppm [5] | mortality at 200 ppm [6] | pest or weed control at 200 ppm [7]

CCc1cc(C(F)(C(F)(F)F)C(F)(F)Cl)cc(Br)c1NC(=O)c1cccc(NC(=O)c2ccc(C#N)cc2)c1F (stereo not drawn) [Compound 19]
≥ 80%: pest or weed control at 200 ppm [1] | pest or weed control at 200 ppm [2] | pest or weed control at 12.5 ppm [3] | mortality at 200 ppm [4] | mortality at 200 ppm [5] | mortality at 200 ppm [6] | pest or weed control at 200 ppm [7]

CCc1cc(C(F)(C(F)(F)F)C(F)(F)Cl)cc(Br)c1NC(=O)c1cccc(N(CC)C(=O)c2cc[n+]([O-])cc2)c1OC (stereo not drawn) [Compound 46]
≥ 80%: pest or weed control at 200 ppm [1] | pest or weed control at 200 ppm [2] | pest or weed control at 12.5 ppm [3] | mortality at 200 ppm [4] | mortality at 200 ppm [5] | mortality at 200 ppm [6] | pest or weed control at 200 ppm [7]

CCN(C(=O)c1ccncc1)c1cccc(C(=O)Nc2c(Cl)cc(C(F)(C(F)F)C(F)(F)F)cc2Br)c1OC (stereo not drawn) [Compound 51, N-[3-[[2-bromo-6-chloro-4-[1-(difluoromethyl)-1,2,2,2-tetrafluoro-ethyl]phenyl]carbamoyl]-2-methoxy-phenyl]-N-ethyl-pyridine-4-carboxamide]
≥ 80%: pest or weed control at 200 ppm [1] | pest or weed control at 200 ppm [2] | pest or weed control at 12.5 ppm [3] | mortality at 200 ppm [5] | mortality at 200 ppm [6] | pest or weed control at 200 ppm [7]

CCc1cc(C(F)(C(F)(F)F)C(F)(F)Cl)cc(Br)c1NC(=O)c1cccc(NC(=O)c2cc[n+]([O-])cc2)c1OC (stereo not drawn) [Compound 29]
≥ 80%: pest or weed control at 200 ppm [1] | pest or weed control at 200 ppm [2] | pest or weed control at 12.5 ppm [3] | mortality at 200 ppm [4] | mortality at 200 ppm [5] | mortality at 200 ppm [6] | pest or weed control at 200 ppm [7]

CCc1cc(C(F)(C(F)(F)F)C(F)(F)Cl)cc(Br)c1NC(=O)c1cccc(NC(=O)c2cc[n+]([O-])cc2)c1F (stereo not drawn) [Compound 27]
≥ 80%: pest or weed control at 200 ppm [1] | pest or weed control at 200 ppm [2] | pest or weed control at 12.5 ppm [3] | mortality at 200 ppm [4] | mortality at 200 ppm [5] | mortality at 200 ppm [6] | pest or weed control at 200 ppm [7]

CCc1cc(C(F)(C(F)(F)F)C(F)(F)Cl)cc(Br)c1NC(=O)c1cccc(N(CC)C(=O)c2ccc(C#N)cc2)c1OC (stereo not drawn) [Compound 34]
≥ 80%: pest or weed control at 200 ppm [1] | pest or weed control at 200 ppm [2] | pest or weed control at 12.5 ppm [3] | mortality at 200 ppm [4] | mortality at 200 ppm [5] | mortality at 200 ppm [6] | pest or weed control at 200 ppm [7]

CCc1cc(C(F)(C(F)(F)F)C(F)(F)Cl)cc(Br)c1NC(=O)c1cccc(N(CC)C(=O)c2ccc[n+]([O-])c2)c1F (stereo not drawn) [Compound 49]
≥ 80%: pest or weed control at 200 ppm [1] | pest or weed control at 200 ppm [2] | pest or weed control at 12.5 ppm [3] | mortality at 200 ppm [4] | mortality at 200 ppm [5] | mortality at 200 ppm [6] | pest or weed control at 200 ppm [7]

CCc1cc(C(F)(C(F)(F)F)C(F)(F)Cl)cc(Br)c1NC(=O)c1cccc(NC(=O)c2ccc[n+]([O-])c2)c1OC (stereo not drawn) [Compound 30]
≥ 80%: pest or weed control at 200 ppm [1] | pest or weed control at 200 ppm [2] | pest or weed control at 12.5 ppm [3] | mortality at 200 ppm [4] | mortality at 200 ppm [5] | mortality at 200 ppm [6] | pest or weed control at 200 ppm [7]

CCc1cc(C(F)(C(F)(F)F)C(F)(F)Cl)cc(Br)c1NC(=O)c1cccc(N(CC)C(=O)c2cc[n+]([O-])cc2)c1F (stereo not drawn) [Compound 45]
≥ 80%: pest or weed control at 200 ppm [1] | pest or weed control at 200 ppm [2] | pest or weed control at 12.5 ppm [3] | mortality at 200 ppm [4] | mortality at 200 ppm [5] | mortality at 200 ppm [6] | pest or weed control at 200 ppm [7]

CCc1cc(C(F)(C(F)(F)F)C(F)(F)Cl)cc(Br)c1NC(=O)c1cccc(NC(=O)c2ccncc2)c1F (stereo not drawn) [Compound 17]
≥ 80%: pest or weed control at 200 ppm [1] | pest or weed control at 200 ppm [2] | pest or weed control at 12.5 ppm [3] | mortality at 200 ppm [4] | mortality at 200 ppm [5] | mortality at 200 ppm [6] | pest or weed control at 200 ppm [7]

CCc1cc(C(F)(C(F)(F)F)C(F)(F)Cl)cc(Br)c1NC(=O)c1cccc(NC(=O)c2ccc[n+]([O-])c2)c1F (stereo not drawn) [Compound 28]
≥ 80%: pest or weed control at 200 ppm [1] | pest or weed control at 200 ppm [2] | pest or weed control at 12.5 ppm [3] | mortality at 200 ppm [4] | mortality at 200 ppm [5] | mortality at 200 ppm [6] | pest or weed control at 200 ppm [7]

CCc1cc(C(F)(C(F)(F)F)C(F)(F)Cl)cc(Br)c1NC(=O)c1cccc(N(CC)C(=O)c2cccnc2)c1OC (stereo not drawn) [Compound 42]
≥ 80%: pest or weed control at 200 ppm [1] | pest or weed control at 200 ppm [2] | pest or weed control at 12.5 ppm [3] | mortality at 200 ppm [4] | mortality at 200 ppm [5] | mortality at 200 ppm [6] | pest or weed control at 200 ppm [7]

CCc1cc(C(F)(C(F)(F)F)C(F)(F)Cl)cc(Br)c1NC(=O)c1cccc(NC(=O)c2ccc(C#N)cc2)c1OC (stereo not drawn) [Compound 22]
≥ 80%: pest or weed control at 200 ppm [1] | pest or weed control at 200 ppm [2] | pest or weed control at 12.5 ppm [3] | mortality at 200 ppm [4] | mortality at 200 ppm [5] | mortality at 200 ppm [6] | pest or weed control at 200 ppm [7]

CCc1cc(C(F)(C(F)(F)F)C(F)(F)Cl)cc(Br)c1NC(=O)c1cccc(N(CC)C(=O)c2ccncc2)c1OC (stereo not drawn) [Compound 38]
≥ 80%: pest or weed control at 200 ppm [1] | pest or weed control at 200 ppm [2] | pest or weed control at 12.5 ppm [3] | mortality at 200 ppm [4] | mortality at 200 ppm [5] | mortality at 200 ppm [6] | pest or weed control at 200 ppm [7]

CCc1cc(C(F)(C(F)(F)F)C(F)(F)Cl)cc(Br)c1NC(=O)c1cccc(N(CC)C(=O)c2ccc(C#N)cc2)c1F (stereo not drawn) [Compound 33]
≥ 80%: pest or weed control at 200 ppm [1] | pest or weed control at 200 ppm [2] | pest or weed control at 12.5 ppm [3] | mortality at 200 ppm [4] | mortality at 200 ppm [5] | mortality at 200 ppm [6] | pest or weed control at 200 ppm [7]
